Values joined by “and” are separate entries in the source; they are usually repeats but may differ in a detail not shown here. Equal values may be shown once.
Target: T1, Collagenase 3 (Homo sapiens, UniProt P45452)

IC50 [nM]	SMILES
0.7	CN1CCN(Cc2cc(Br)cc(C(=O)NO)c2N(C)S(=O)(=O)c2ccc(Oc3ccc(Cl)cc3)cc2)CC1

Target: T2, Interstitial collagenase (Homo sapiens, UniProt P03956)
T2 sequence (P03956 whole entry): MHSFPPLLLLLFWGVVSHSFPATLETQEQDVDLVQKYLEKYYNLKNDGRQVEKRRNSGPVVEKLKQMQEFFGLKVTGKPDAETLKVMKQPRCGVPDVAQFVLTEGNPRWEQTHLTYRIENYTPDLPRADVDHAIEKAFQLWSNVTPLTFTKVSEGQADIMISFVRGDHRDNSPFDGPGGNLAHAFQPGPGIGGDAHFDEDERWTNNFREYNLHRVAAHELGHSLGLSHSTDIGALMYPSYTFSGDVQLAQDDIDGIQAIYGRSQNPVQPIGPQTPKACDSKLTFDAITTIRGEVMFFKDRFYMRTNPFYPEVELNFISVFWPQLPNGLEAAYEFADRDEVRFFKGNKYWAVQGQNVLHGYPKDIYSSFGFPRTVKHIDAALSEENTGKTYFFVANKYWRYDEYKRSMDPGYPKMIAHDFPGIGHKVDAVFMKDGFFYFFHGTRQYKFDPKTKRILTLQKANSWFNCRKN
Experiment: Inhibition of Matrix metalloprotease-1

IC50 [nM]	SMILES
82	CN1CCN(Cc2cc(Br)cc(C(=O)NO)c2N(C)S(=O)(=O)c2ccc(Oc3ccc(Cl)cc3)cc2)CC1

Target: T3, Disintegrin and metalloproteinase domain-containing protein 17 (Homo sapiens, UniProt P78536)
T3 sequence (P78536 whole entry, the tested form may be a part): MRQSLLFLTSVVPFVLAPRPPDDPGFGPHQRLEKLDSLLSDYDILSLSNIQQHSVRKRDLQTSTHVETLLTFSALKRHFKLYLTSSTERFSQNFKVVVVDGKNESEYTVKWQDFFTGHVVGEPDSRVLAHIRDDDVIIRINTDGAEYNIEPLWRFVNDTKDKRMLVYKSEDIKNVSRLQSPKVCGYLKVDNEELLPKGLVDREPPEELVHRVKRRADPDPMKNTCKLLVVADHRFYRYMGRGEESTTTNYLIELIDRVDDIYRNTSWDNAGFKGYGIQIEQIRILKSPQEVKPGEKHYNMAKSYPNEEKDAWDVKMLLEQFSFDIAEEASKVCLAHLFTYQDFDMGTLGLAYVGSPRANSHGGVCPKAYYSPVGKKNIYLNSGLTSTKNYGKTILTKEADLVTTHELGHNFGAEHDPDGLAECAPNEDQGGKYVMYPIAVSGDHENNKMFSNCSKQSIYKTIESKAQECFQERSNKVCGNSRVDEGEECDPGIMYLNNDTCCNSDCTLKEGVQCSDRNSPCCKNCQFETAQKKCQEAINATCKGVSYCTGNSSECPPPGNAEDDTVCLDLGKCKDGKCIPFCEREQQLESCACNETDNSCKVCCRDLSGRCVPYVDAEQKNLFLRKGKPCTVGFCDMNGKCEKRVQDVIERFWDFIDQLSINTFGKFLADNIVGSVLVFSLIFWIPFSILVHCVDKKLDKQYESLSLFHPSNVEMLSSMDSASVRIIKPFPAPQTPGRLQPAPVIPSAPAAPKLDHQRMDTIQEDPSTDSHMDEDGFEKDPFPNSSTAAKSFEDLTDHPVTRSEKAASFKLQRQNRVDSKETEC
Experiment: In vitro inhibition of TNF-alpha converting enzyme.

SMILES	IC50
COc1ccc(S(=O)(=O)N(C)c2c(CN3CCN(C)CC3)cc(-c3ccc4ccccc4c3)cc2C(=O)NO)cc1	49 nM
COc1ccc(S(=O)(=O)N(C)c2c(CN3CCN(c4ccccc4)CC3)cc(Br)cc2C(=O)NO)cc1	87 nM
CN1CCN(Cc2cccc(C(=O)NO)c2N(C)S(=O)(=O)c2ccc(Oc3ccc(Cl)cc3)cc2)CC1	122 nM
COC(=O)C1CCCN1Cc1cccc(C(=O)NO)c1N(C)S(=O)(=O)c1ccc(OC)cc1 (stereo not drawn)	200 nM
COc1ccc(S(=O)(=O)N(CC#CCN2CCN(C)CC2)c2c(C)cc(Br)cc2C(=O)NO)cc1	26 nM
COc1ccc(S(=O)(=O)N(C)c2c(CN3CCN(C)CC3)cc(-c3ccc(OC(F)(F)F)cc3)cc2C(=O)NO)cc1	210 nM
COc1ccc(S(=O)(=O)N(Cc2cccnc2)c2c(C)cccc2C(=O)NO)cc1	356 nM and 645 nM
CCN(CC)CC#CCN(c1c(C)cc(Br)cc1C(=O)NO)S(=O)(=O)c1ccc(OC)cc1	36 nM
COc1ccc(S(=O)(=O)N(C)c2c(CN3CCN(C(=O)OC(C)(C)C)CC3)cc(Br)cc2C(=O)NO)cc1	63 nM

Target: T1, Collagenase 3
Experiment: In vitro inhibition of Matrix metalloprotease-13.

SMILES	IC50 [nM]
COc1ccc(S(=O)(=O)N(C)c2c(CN3CCN(C)CC3)cc(-c3ccc4ccccc4c3)cc2C(=O)NO)cc1	3
COc1ccc(S(=O)(=O)N(C)c2c(CN3CCN(c4ccccc4)CC3)cc(Br)cc2C(=O)NO)cc1	3
COc1ccc(S(=O)(=O)N(Cc2ccc(OCCN3CCCCC3)cc2)c2c(C)cc(Br)cc2C(=O)NO)cc1	3
CN1CCN(Cc2cccc(C(=O)NO)c2N(C)S(=O)(=O)c2ccc(Oc3ccc(Cl)cc3)cc2)CC1	0.8
COC(=O)C1CCCN1Cc1cccc(C(=O)NO)c1N(C)S(=O)(=O)c1ccc(OC)cc1 (stereo not drawn)	6
COc1ccc(S(=O)(=O)N(CC#CCN2CCN(C)CC2)c2c(C)cc(Br)cc2C(=O)NO)cc1	6
COc1ccc(S(=O)(=O)N(C)c2c(CN3CCN(C)CC3)cc(-c3ccc(OC(F)(F)F)cc3)cc2C(=O)NO)cc1	4
CCN(CC)Cc1cccc(C(=O)NO)c1N(C)S(=O)(=O)c1ccc(OC)cc1	84
CCN(CC)CC#CCN(c1c(C)cc(Br)cc1C(=O)NO)S(=O)(=O)c1ccc(OC)cc1	7
COc1ccc(S(=O)(=O)N(C)c2c(CN3CCN(C(=O)OC(C)(C)C)CC3)cc(Br)cc2C(=O)NO)cc1	6

Target: T2, Interstitial collagenase
Experiment: In vitro inhibition of Matrix metalloprotease-1.

SMILES	IC50
COc1ccc(S(=O)(=O)N(C)c2c(CN3CCN(C)CC3)cc(-c3ccc4ccccc4c3)cc2C(=O)NO)cc1	343 nM
COc1ccc(S(=O)(=O)N(C)c2c(CN3CCN(c4ccccc4)CC3)cc(Br)cc2C(=O)NO)cc1	444 nM
CN1CCN(Cc2cccc(C(=O)NO)c2N(C)S(=O)(=O)c2ccc(Oc3ccc(Cl)cc3)cc2)CC1	155 nM
COC(=O)C1CCCN1Cc1cccc(C(=O)NO)c1N(C)S(=O)(=O)c1ccc(OC)cc1 (stereo not drawn)	517 nM
COc1ccc(S(=O)(=O)N(C)c2c(CN3CCN(C)CC3)cc(-c3ccc(OC(F)(F)F)cc3)cc2C(=O)NO)cc1	745 nM

Next, values leading:

IC50	SMILES
329 nM and 391 nM	COc1ccc(S(=O)(=O)N(Cc2cccnc2)c2c(C)cccc2C(=O)NO)cc1
744 nM	CCN(CC)Cc1cccc(C(=O)NO)c1N(C)S(=O)(=O)c1ccc(OC)cc1
194 nM	COc1ccc(S(=O)(=O)N(C)c2c(CN3CCN(C)CC3)cc(Br)cc2C(=O)NO)cc1
150 nM	CCN(CC)CC#CCN(c1c(C)cc(Br)cc1C(=O)NO)S(=O)(=O)c1ccc(OC)cc1
674 nM	COc1ccc(S(=O)(=O)N(C)c2c(CN3CCN(C(=O)OC(C)(C)C)CC3)cc(Br)cc2C(=O)NO)cc1

Target: T3, Disintegrin and metalloproteinase domain-containing protein 17
Experiment: Inhibition of TNFalpha converting enzyme, TACE

IC50 [nM]	SMILES
80	CN1CCN(Cc2cc(Br)cc(C(=O)NO)c2N(C)S(=O)(=O)c2ccc(Oc3ccc(Cl)cc3)cc2)CC1

Target: Matrix metalloproteinase-9 (Homo sapiens, UniProt P14780)
Sequence (P14780 whole entry): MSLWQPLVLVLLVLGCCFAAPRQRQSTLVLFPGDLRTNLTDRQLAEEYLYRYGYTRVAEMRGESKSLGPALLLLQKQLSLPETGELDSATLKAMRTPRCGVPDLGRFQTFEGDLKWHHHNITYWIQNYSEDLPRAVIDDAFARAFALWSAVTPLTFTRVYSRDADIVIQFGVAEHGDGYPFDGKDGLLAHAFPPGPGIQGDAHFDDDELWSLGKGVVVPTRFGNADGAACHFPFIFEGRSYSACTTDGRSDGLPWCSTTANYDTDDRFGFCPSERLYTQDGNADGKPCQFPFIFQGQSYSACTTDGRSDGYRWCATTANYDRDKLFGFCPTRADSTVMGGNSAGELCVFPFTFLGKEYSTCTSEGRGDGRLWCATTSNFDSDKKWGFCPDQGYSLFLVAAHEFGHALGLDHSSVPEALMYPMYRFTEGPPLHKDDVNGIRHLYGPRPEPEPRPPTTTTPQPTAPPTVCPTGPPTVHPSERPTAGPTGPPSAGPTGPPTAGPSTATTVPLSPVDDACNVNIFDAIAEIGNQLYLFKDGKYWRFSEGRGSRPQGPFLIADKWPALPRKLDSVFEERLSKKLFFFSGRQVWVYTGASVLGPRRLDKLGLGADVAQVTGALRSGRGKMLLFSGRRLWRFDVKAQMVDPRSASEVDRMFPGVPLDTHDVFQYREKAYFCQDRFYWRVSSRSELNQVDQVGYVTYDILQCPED
Experiment: In vitro inhibition of Matrix metalloprotease-9.

SMILES	IC50 [nM]
COc1ccc(S(=O)(=O)N(Cc2ccc(OCCN3CCCCC3)cc2)c2c(C)cccc2C(=O)NO)cc1	7
COc1ccc(S(=O)(=O)N(C)c2c(CN3CCN(C)CC3)cc(-c3ccc4ccccc4c3)cc2C(=O)NO)cc1	2
COc1ccc(S(=O)(=O)N(C)c2c(CN3CCN(c4ccccc4)CC3)cc(Br)cc2C(=O)NO)cc1	3
CN1CCN(Cc2cccc(C(=O)NO)c2N(C)S(=O)(=O)c2ccc(Oc3ccc(Cl)cc3)cc2)CC1	1
COC(=O)C1CCCN1Cc1cccc(C(=O)NO)c1N(C)S(=O)(=O)c1ccc(OC)cc1 (stereo not drawn)	5
COc1ccc(S(=O)(=O)N(CC#CCN2CCN(C)CC2)c2c(C)cc(Br)cc2C(=O)NO)cc1	10
COc1ccc(S(=O)(=O)N(C)c2c(CN3CCN(C)CC3)cc(-c3ccc(OC(F)(F)F)cc3)cc2C(=O)NO)cc1	2

The remaining lines, values ahead:

IC50 [nM]	SMILES
2	COc1ccc(S(=O)(=O)N(Cc2ccc(OCCN3CCCCC3)cc2)c2c(C)cc(Br)cc2C(=O)NO)cc1
7	COc1ccc(S(=O)(=O)N(Cc2ccc(N3CCN(C)CC3)cc2)c2c(C)cccc2C(=O)NO)cc1
3	COc1ccc(S(=O)(=O)N(Cc2ccc(CN(C)C)cc2)c2c(C)cccc2C(=O)NO)cc1
0.5	CN1CCN(Cc2cc(Br)cc(C(=O)NO)c2N(C)S(=O)(=O)c2ccc(Oc3ccc(Cl)cc3)cc2)CC1
8	CCN(CC)Cc1cccc(C(=O)NO)c1N(C)S(=O)(=O)c1ccc(OC)cc1
2	COc1ccc(S(=O)(=O)N(C)c2c(CN3CCN(C)CC3)cc(Br)cc2C(=O)NO)cc1
14	CCN(CC)CC#CCN(c1c(C)cc(Br)cc1C(=O)NO)S(=O)(=O)c1ccc(OC)cc1
7	COc1ccc(S(=O)(=O)N(C)c2c(CN3CCN(C(=O)OC(C)(C)C)CC3)cc(Br)cc2C(=O)NO)cc1
1	COc1ccc(S(=O)(=O)N(C)c2c(CN3CCN(C)CC3)cccc2C(=O)NO)cc1

— ChEMBL document CHEMBL1133846, “The discovery of anthranilic acid-based MMP inhibitors. Part 3: incorporation of basic amines” (Bioorg Med Chem Lett, 2001)
